The source of these data is patent US20260144266A1, “METHODS OF TREATING PLANT-BASED PRODUCTS TO REDUCE MICROBE PROLIFERATION AND EXTEND SHELF LIFE” (Ascribe Bioscience Inc., priority 2022, published 2026).

The assay relates to Store-bought Strawberries. Kind of assay: Strawberry shelf-life / spoilage test after ascaroside treatment. The conditions noted are these: berries dipped into 100 nM water solution. On the procedure:
Example 1: treatment of fruit with ascarosides extends shelf-life/delays spoilage. Store-bought Strawberries were treated with ascaroside (ascr #18) by dipping the berries into a 100 nM water solution of the ascaroside or a mock solution lacking ascaroside. Five berries from each treatment group were placed in glass dishes and left uncovered on a table indoors at ambient temperature and monitored for one week. Fruit weight was measured at 0, 1, 3, 4, 5, 6, and 7 days post-treatment. The ascaroside treated berries retained approximately 25% more of their original mass than the untreated group indicating a reduced spoilage rate and potential for increased shelf life. […] Example 2: treatment of fruit with coating compositions containing ascarosides. Freshly harvested, non-coated, apples were obtained from a supermarket. These were washed and experimental coatings were applied.

On to `CC1OC(O[C@H](C)CCCCCCCCC(=O)O)C(O)CC1O` (some centres unmarked) [ascr #18], for which the “fruit quality by appearance (photographs, FIG. 1b)” value (photographs 0, 3 and 5 days post-treatment, vs untreated fruit) is listed as “maintained higher quality than the untreated fruit”. In addition, the “original mass retained, more than the untreated group (normalized fruit mass, FIG. 1a)” value (uncovered at ambient temperature, monitored for seven days, vs mock solution) is on record as “approximately 25%”.
